Patent publication US20250269039A1, “THERAPEUTIC-OLIGONUCLEOTIDES ACTIVATED BY NUCLEASES” (priority 2020, published 2025)

Tests used:
[1] = tested on: Staphylococcus epidermidis (MN-); assay: Nuclease activity assay with culture supernatants (negative control); assay type: biochemical; settings: S. epidermidis cultures; FIG. 3
Protocol: (§1) Nuclease activity assay. Nuclease activity of different S. aureus strains was evaluated using the TTprobe and TTprobe 2, along with the S. epidermidis as negative control and Micrococcal Nuclease (MN) as positive control. Single colonies of each bacteria strain isolated on tryptone soy agar were transferred to 50 mL tryptone soy broth and incubated at 37° C. for 24 hours with 200 rpm shaking. After the incubation period, 100 μL volumes of liquid cultures were transferred to a fresh 50 mL tryptone soy broth (1/500 dilution) and incubated under the same conditions for 12 hours. Next, cultures were centrifuged at 4500 g for 30 minutes and the supernatants were used for the nuclease activity assay. Briefly, 8 μL of supernatants were mixed with 1 μL PBS+/+ and 1 μL TT probe. The reactions were incubated at 37° C. for 1 hour. Then, 290 μL of 10 mM EDTA in PBS−/− solution were added to stop the reaction and the final solution was divided into triplicate wells (95 μL each), in a black flat-bottom polystyrene plates (Thermo Scientific F96). Fluorescence intensity was acquired at 485/20 excitation and 528/20 emission filter pair using Cytation 1 Cell Imaging Multimode Reader (Biotek Instruments Inc., USA).

S. aureus (MN+) = assay: Nuclease activity assay with culture supernatants; assay type: biochemical, Staphylococcus aureus
Protocol: as §1

S. aureus = assay: Growth inhibition curves / MICs in S. aureus cultures (strain not named or summary over strains); assay type: cell-based, Staphylococcus aureus; settings: for bacterial growth inhibition: S. aureus cultures, optical density (OD) over 18 h, FIG. 1b
Protocol: Antimicrobial susceptibility testing. Minimal inhibitory concentrations (MIC) of all nucleoside analogues and TOUCANs against each bacteria strain were determined using broth microdilution method. A single colony obtained from overnight culture on tryptone soy agar with 5% defibrinated sheep blood was inoculated in cation-adjusted Mueller Hinton Broth and adjusted to 10^6 CFU/mL. TOUCANs were prepared in PBS+/+ (treatment) and serial dilutions were made in 96-well polystyrene round bottom microwell plates with 50 μL final volume for each concentration. PBS+/+ was used as untreated control. Next, 50 μL bacteria solutions were added to each well to a final bacteria concentration of 5×10^5 CFU/mL. Plates were incubated at 37° C. in Cytation 1 Cell Imaging Multimode Reader. Growth curves were obtained by measuring optical densities at 600 nm every 10 minutes for 18 hours using Cytation 1 Cell Imaging Multimode Reader. In addition, visual inspection of the plates was carried out after 18 hours and photographs were taken. MICs were defined as the lowest drug concentration in the microwell at which bacterial growth was not visible at the end of the incubation period. Besides MIC determination, specificity of TOUCAN 7mGe was also shown with subcultures on chromogenic media. For this purpose, 5 μL of different concentrations of each strain were inoculated onto CHROM agar Orientation Media (Becton Dickinson) and the bacterial growth of each bacteria strain tested was observed by naked eye after incubation at 37° C. for 24 hours. Finally, photographs of the chromogenic media were taken.

[2] = tested on: Breast cancer cells (MDAMB231); assay: Anti-cancer drug susceptibility testing for TOUCAN 7mDx, breast cancer cells, 96 h; assay type: cell-based; settings: FIG. 15
Protocol: Anti-cancer drug susceptibility testing for TOUCAN 7mDx. Doxorubicin and equivalent 7mDx solutions were prepared as explained before. Then, 7mDx was pre-exposed to 5 μl of 10 U MN for 1 hour at 37° C. (7mDx+MN). 100 μl of all drugs (Doxorubicin, 7mDx, and 7mDx+MN) were added to the related wells and serially diluted using PBS+/+making the final concentrations between 20-0.3 μg/μl. Breast cancer cells (MDAMB231) were prepared as 20.000 cells/ml and 100 μl cell suspensions were added to each well. The plate was incubated at 37° C. for 96 hours. At 48th hour of incubation, 100 μl CyQUANT® Direct Cell Proliferation Assay kit was added to each well. Cell counts and images were taken at the end of 96 hours incubation period using Cytation 1 Cell Imaging Multi-Mode Reader.

## FAM-mU-mU-mU-mU-T-T-mU-mU-mU-mU-TQ2 [TTprobe2]
[1]
  stability in presence of control bacteria: rendered stable
S. aureus (MN+); S. aureus cultures, FIG. 3
  degradation by nucleases: efficient degradation
S. aureus (MN+); all S. aureus strains used in the study, FIG. 4
  degradation by nucleases: efficiently

## T-T-Ge-mU-mU-mU-mU [SDR probe]
S. aureus; combinations of the R-S-D moieties, FIG. 1c
  inhibition of bacterial growth (therapeutic efficacy): 30%

## mU-mU-mU-mU-Ge-T-T-mU-mU-mU-mU (UUUUGTTUUUU; chemistry not given here) [GeTT, TOUCAN with Gemcitabine upstream of TT]
S. aureus
  bacterial growth inhibition: low growth inhibition efficiency

## mU-mU-mU-mU-Ge-mU-mU-mU-mU [Ge-Control]
S. aureus
  bacterial growth inhibition: low growth inhibition efficiency

## mU-mU-mU-mU-T-T-Dx [TOUCAN 7mDx]
[2]; 7mDx alone (no nuclease)
  effect on viability of breast cancer cells: did not show a significant effect on viability
[2]; 7mDx spiked with MN
  therapeutic efficacy in breast cancer cells (viability): remarkable therapeutic efficacy

## mU-mU-mU-mU-T-T-Ge-mU-mU-mU-mU (UUUUTTGUUUU; chemistry not given here) [TTGe, TOUCAN with Gemcitabine downstream of TT]
S. aureus
  bacterial growth inhibition: around 20%
